Consider five compounds from US20240277874A1, “FLUORESCENCE-MAGNETIC RESONANCE DUAL-MODALITY CONTRAST AGENT, PREPARATION METHOD THEREFOR AND USE THEREOF” (HAINAN POLY PHARMACEUTICAL CO., LTD., priority 2021, published 2024).

Read-outs that look alike come from different tables or passages of the source. A value given as a limit tells only on which side of the number the result lay.

Data set [1] can be described thus: Stability of the aqueous contrast agent solution at room temperature, relative content by HPLC. The class given is physicochemical. The settings on record: aqueous solution 0.1 mg/mL. The method, then:
The aqueous solution of the contrast agent (0.1 mg/mL) was left at room temperature and its stability was measured by calibrating its relative content by the HPLC method at different time points, and the stability of the contrast agent is shown in Table 4.

The test system of data set [2] is ICR female mice. As to conditions: mouse, in vivo, iv. An excerpt:
The maximum tolerated dose (MTD) of the contrast agent was preliminarily determined by administration to mice by tail intravenous injection.

Data set [3] can be described thus: Longitudinal relaxation rate (r1), 0.35T nuclear magnetic resonance imaging system, IR sequence. The class given is physicochemical. As to conditions: for r1 in BSA solution(1%): bovine serum protein solution (1%, w/w); for r1 in Water: pure water. The method, then: The longitudinal relaxation rate (r1) of the contrast agent was determined in a 0.35T small nuclear magnetic resonance imaging system using an IR […] sequence. The relaxation rates of the contrast agent in pure water and in bovine serum protein solution (1%, w/w) in different solvents are shown in Table 3 below.

The test system of data set [4] is ICR female mice. The settings on record: value marked * with footnote not given; 60 is not among the tested doses; cited from earlier work.
The conditions of data set [5]: normal people, 20 minutes after intravenous injection; cited from earlier work.
Data set [6] relates to murine hepatocellular carcinoma cells H22. Briefly: Cell entry rate of the contrast agent by flow cytometry. It is filed as cell-based. The settings on record: compared among PL-002, PL-003, PL-004 and PL-006, FIG. 2. The method, then:
The cell entry rate of the contrast agent at the cell level was determined by flow cytometers. Logarithmically grown murine hepatocellular carcinoma cells H22 were collected and spread evenly in 12-well plates, with an approximate cell number of 1.5×10^5 per well.

Data set [7] deals with H22 liver in situ tumors in Balb/c mice. Put plainly: Magnetic resonance T1-enhanced imaging of liver in situ tumors, GE 3.0T system. It is filed as in vivo. The settings on record: Balb/c mice with H22 liver in situ tumor, 1 mg/mL solution, 5 mL/kg tail iv, FIG. 3. The method, then:
Magnetic resonance imaging of liver in situ tumors with a contrast agent was performed using a GE 3.0T magnetic resonance imaging system. H22 cells were inoculated in Balb/c mice through liver in-situ injection, and liver conditions were observed through magnetic resonance. After the tumor was formed, 1 mg/mL contrast agent solution (5 mL/kg) was injected through the tail intravenous, and the liver was subjected to magnetic resonance T1-enhanced imaging at different time points after the administration of the agent.

Data set [8] deals with major organs of liver in situ tumor mice. Briefly: Tissue fluorescence of liver in situ tumor mice, small animal live imaging analyzer. It is filed as in vivo. As to conditions: organs removed after magnetic resonance imaging, FIG. 4. An excerpt: Liver in situ tumor mice tissue fluorescence was observed by a small animal live imaging analyzer (Perkin Elmer). After magnetic resonance imaging, the major organs of the mice were removed and observed by live imaging, and the results are shown in FIG. 4.

For data set [9], the system named is liver and kidney of ICR mice. Put plainly: Fluorescence imaging of removed livers and kidneys after magnetic resonance imaging. The class given is in vivo. As to conditions: 6 hours after administration, FIG. 1C. The method, then: (§1) • 1. IR-820 (new indocyanine green) and 3,6,9-trioxaundecamethylenediamine (1:1-1:5 eq.) were added to the DMSO solution. And then the triethylamine as the deacid reagent was added to the mixture. The mixture reacted at 20-80° C. for 2 h. The desired product B01 was obtained after precipitation. • 2. B01 and DOTA-NHS ([…] is N-hydroxysuccinimide) (1:1-1:3 eq.) were dissolved in DMSO solution, and 1-20 equivalents of triethylamine was added to the mixture. The mixture reacted at 10-40° C. for 24 h. The desired product B02 was obtained after precipitation. • 3. B02 was reacted with 0.5-2 equivalents of gadolinium chloride hydrate in DMSO at 10-50° C. for 10 h-50 h, and the desired product PL-001 was obtained after precipitation, yield of 83%, purity of 91%. • 4. The final product was dissolved in pure water to create a solution. The product was administered to ICR mice by tail intravenous injection at doses of 5 mg/kg and 30 mg/kg, respectively. Magnetic resonance T1-enhanced imaging (SE sequence) was performed on the liver and kidney of the mice before and after the administration of the product. After the magnetic resonance imaging was completed, the livers and kidneys were removed for fluorescence imaging. […] From the figure, it can be seen that the magnetic resonance enhancement and fluorescence imaging results of the liver and kidney were basically consistent.

The test system of data set [10] is liver and kidney of ICR mice. Briefly: Magnetic resonance T1-enhanced imaging (SE sequence) of liver and kidney after tail intravenous injection. It is filed as in vivo. The settings on record: tail iv 5 mg/kg and 30 mg/kg, FIG. 1A. The method, then:
as §1

Regarding `CC1(C)C(/C=C/C2=C(Oc3ccc(CCC(=O)NCCOCCOCCOCCNC(=O)CN4CCN(CC(=O)[O-])CCN(CC(=O)[O-])CCN(CC(=O)[O-])CC4)cc3)C(=C/C=C3/N(CCCCS(=O)(=O)O)c4ccc5ccccc5c4C3(C)C)/CCC2)=[N+](CCCCS(=O)(=O)O)c2ccc3ccccc3c21.[Gd+3]` [PL-002], the decomposition rate % is 0% in data set [1] (0 h), “<LOQ” in [1] (2 h), “<LOQ” in [1] (24 h) and “<LOQ” in data set [1] (48 h). The MTD with ICR female mice [2] came out at 125 mg/kg. The “r1 in BSA solution(1%)” value in [3] was determined as 16.2 mM⁻¹ s⁻¹. The “r1 in Water” value in data set [3] was found to be 11.8 mM⁻¹ s⁻¹.

Take `CC1(C)C(/C=C/C2=C(Oc3ccc(CCC(=O)NCCOCCOCCNC(=O)CN4CCN(CC(=O)[O-])CCN(CC(=O)[O-])CCN(CC(=O)[O-])CC4)cc3)C(=C/C=C3/N(CCCCS(=O)(=O)O)c4ccc5ccccc5c4C3(C)C)/CCC2)=[N+](CCCCS(=O)(=O)O)c2ccc3ccccc3c21.[Gd+3]` [PL-004]: the decomposition rate % in data set [1] (0 h) is 0%; in data set [1] (2 h) it was “<LOQ”; in data set [1] (24 h) it was “<LOQ”; in data set [1] (48 h), “<LOQ”. The compound also came in with an MTD in the data set on ICR female mice [2] of 125 mg/kg. The “r1 in BSA solution(1%)” value in [3] is 17.6 mM⁻¹ s⁻¹. Further, the “r1 in Water” value in data set [3] is 14.7 mM⁻¹ s⁻¹.

In the case of `CC1(C)C(/C=C/C=C/C=C/C=C2\N(CCCCS(=O)(=O)O)c3ccc4ccccc4c3C2(C)C)=[N+](CCCCS(=O)(=O)[O-])c2ccc3ccccc3c21` [ICG, Indocyanine green], the MTD with ICR female mice [4] is recorded as 60* mg/kg. Moreover, the “eliminated from the blood” value in data set [5] is given as “about 97%”.

Consider `CC1(C)C(/C=C/C2=C(Oc3ccc(CCC(=O)NCCCCCCCCCCNC(=O)CN4CCN(CC(=O)[O-])CCN(CC(=O)[O-])CCN(CC(=O)[O-])CC4)cc3)C(=C/C=C3/N(CCCCS(=O)(=O)O)c4ccc5ccccc5c4C3(C)C)/CCC2)=[N+](CCCCS(=O)(=O)O)c2ccc3ccccc3c21.[Gd+3]` [PL-003], for which the decomposition rate % was 0% in [1] (0 h), “<LOQ” in data set [1] (2 h), “<LOQ” in data set [1] (24 h) and “<LOQ” in data set [1] (48 h). Also, the cell entry rate entry in [6] is “fastest cellular entry”. In addition, the MTD with ICR female mice [2] is recorded as 150 mg/kg. Further, the “r1 in BSA solution(1%)” value in data set [3] was determined as 18.9 mM⁻¹ s⁻¹. Moreover, the “r1 in Water” value in [3] stood at 15.4 mM⁻¹ s⁻¹. In addition, the “magnetic resonance T1 enhancement of the tumor site” value in [7] is “better enhancement effect”. The “distinction of tumor from normal tissue and fluorescence intensity” value in [8] was “tumor is distinguished from the normal tissue and has better fluorescence intensity”.

For `CC1(C)C(=CC=C2CCCC(C=CC3=[N+](CCCCS(=O)(=O)O)c4ccc5ccccc5c4C3(C)C)=C2NCCCOCCOCCOCCCNC(=O)CN2CCN(CC(=O)[O-])CCN(CC(=O)[O-])CCN(CC(=O)[O-])CC2)N(CCCCS(=O)(=O)O)c2ccc3ccccc3c21.[Gd+3]` [PL-001], the decomposition rate % stood at 0% in data set [1] (0 h), 5.9% in [1] (2 h), 40.0% in [1] (24 h) and 65.4% in data set [1] (48 h). The “fluorescence imaging of liver and kidney” value in data set [9] was “significant fluorescence of the liver and kidney”. Also, the MTD in the data set with ICR female mice [2] is on record as 75 mg/kg. Besides, in [10], the “magnetic resonance T1-enhanced imaging of liver and kidney” value was “significant enhancement of liver and kidney”.
